Ki data for ten compounds are collected here from patent US10195201B2, “Heteroaryl-pyrimidinone compounds as PDE2 inhibitors” (Merck Sharp & Dohme Corp., priority 2015, dated 2019).

Like-named read-outs stand apart in the source and are kept apart here.

One experiment addresses human PDE2A1 (Homo sapiens (Human), UniProt O00408). Put plainly: PDE2 fluorescence polarization (IMAP FP) inhibition assay, human enzyme. The format is biochemical. Here is the method:
(§1) The activity of the compounds in accordance with the present invention as PDE2 inhibitors may be readily determined using a fluorescence polarization (FP) methodology (Huang, W., et al., J. Biomol Screen, 2002, 7: 215).
Selectivity for PDE2, as compared to other PDE families, was assessed using the IMAPR technology. Human PDE10A2 enzyme was prepared from cytosolic fractions of transiently transfected HEK cells. All other PDE's were GST Tag human enzyme expressed in insect cells and were obtained from BPS Bioscience (San Diego, Calif.): PDE1A (Cat#60010), human PDE2A1(Cat#60020), PDE3A (Cat#60030), PDE4A1A (Cat#60040), PDE5A1 (Cat#60050), PDE6C (Cat#60060), PDE7A (Cat#60070), PDE8A1 (Cat#60080), PDE9A2 (Cat#60090), PDE11A4 (Cat#60110).
Assays for PDE 1 through 11 were performed in parallel at room temperature in 384-well microtiter plates with an incubation volume of 20.2 μL. Solutions of test compounds were prepared in DMSO and serially diluted with DMSO to yield 30 μL of each of ten solutions differing by 3-fold in concentration, at 32 serial dilutions per plate. […] A Labcyte POD 810 (Labcyte, Sunnyvale, Calif.) was used to dispense 200 nL from each well of the titration plate to make eleven copies of the assay plate for each titration, one copy for each PDE enzyme. A solution of each enzyme (dilution from aliquots, sufficient to produce 20% substrate conversion) and a separate solution of FAM-labeled cAMP or FAM-labeled cGMP from Molecular Devices (Sunnyvale, Calif., product # R7506 or cGMP#R7508), at a final concentration of 50 nM were made in the assay buffer (10 mM Tris HCl, pH 7.2, 10 mM MgCl2, 0.05% NaN3 0.01% Tween-20, and 1 mM DTT). Note that the substrate for PDE2 is 50 nM FAM cAMP containing 1000 nM of cGMP. The enzyme and the substrate were then added to the assay plates in two consecutive additions of 10 μL and then shaken to mix. The reaction was allowed to proceed at room temperature for 60 minutes. A binding solution was then made from the kit components, comprised of 80% Solution A, 20% Solution B and binding reagent at a volume of 1/600 the total binding solution. The enzymatic reaction was stopped by addition of 60 μL of the binding solution to each well of the assay plate. The plates were sealed and shaken for 10 seconds. The plates were incubated at room temperature for one hour, then the parallel and perpendicular fluorescence was measured using a Tecan Genios Pro plate reader (Tecan, Switzerland). The apparent inhibition constants for the compounds against all 11 PDE's was determined from the parallel and perpendicular fluorescent readings as described for PDE10 FP assay using the following apparent KM values for each enzyme and substrate combination: PDE1A (FAM cGMP) 70 nM, human PDE2A1 (FAM cAMP) 10,000 nM, PDE3A (FAM cAMP) 50 nM, PDE4A1A (FAM cAMP) 1500 nM, PDE5A1 (FAM cGMP) 400 nM, PDE6C (FAM cGMP) 700 nM, PDE7A (FAM cAMP) 150 nM, PDE8A1 (FAM cAMP) 50 nM, PDE9A2 (FAM cGMP) 60 nM, […] (FAM cAMP) 150 nM, PDE11A4 (FAM cAMP) 1000 nM. The intrinsic PDE2 inhibitory activity of a compound which may be used in accordance with the present invention may be determined by these assays. […]

Another experiment addresses Rhesus PDE2A3 (Macaca mulatta, UniProt B3VTJ2). The experiment in a line: PDE2 fluorescence polarization (IMAP FP) inhibition assay, rhesus enzyme. The format is biochemical, rhesus macaque. As for the experimental part: as §1
In a typical experiment the PDE2 inhibitory activity of the compounds of the present invention was determined in accordance with the following experimental method. Rhesus PDE2A3 was amplified from rhesus macaque brain cDNA (Biochain Institute, Hayward, Calif.) using primers based on human PDE2A sequence (accession NM_002599.3) where the forward primer containing a Kozak consensus was 5′-[…]-3′ and the reverse primer was 5′-[…]-3′. Amplification with Easy-A High-Fidelity PCR cloning enzyme (Stratagene, La Jolla, Calif.) was 95° C. for 2 minutes followed by thirty three cycles of 95° C. for 40 seconds, 52° C. for 30 seconds, and 72° C. for 2 minutes 48 seconds. Final extension was 72° C. for 7 minutes. The PCR product was TA cloned into pcDNA3.3-TOPO (Invitrogen, Carlsbad, Calif.) according to standard protocol. A consensus sequence was developed from multiple clones and then deposited into GenBank (EU812167). AD293 cells (Stratagene, La Jolla, Calif.) with 70-80% confluency were transiently transfected with rhesus PDE2A3/pcDNA3.3-TOPO using Lipofectamine 2000 according to manufacturer specifications (Invitrogen, Carlsbad, Calif.). Cells were harvested 48 hours post-transfection and lysed by sonication (setting 3, 10×5 sec pulses) in a buffer containing 20 mM HEPES pH 7.4, 1 mM EDTA and Complete Protease Inhibitor Cocktail Tablets (Roche, Indianapolis, Ind.). Lysate was collected by centrifugation at 75,000×g for 20 minutes at 4° C. and supernatant utilized for evaluation of PDE2 activity. The fluorescence polarization assay for cyclic nucleotide phosphodiesterases was performed using an IMAP® FP kit supplied by Molecular Devices, Sunnyvale, Calif. (product # R8139). […] Assays were performed at room temperature in 384-well microtiter plates with an incubation volume of 20.2 μL. Solutions of test compounds were prepared in DMSO and serially diluted with DMSO to yield 8 μL of each of 10 solutions differing by 3-fold in concentration, at 32 serial dilutions per plate. […] 0% of inhibition is determined by using DMSO (1% final concentrations).
A Labcyte Echo 555 (Labcyte, Sunnyvale, Calif.) is used to dispense 200 nL from each well of the titration plate to the 384 well assay plate. Ten microliters of a solution of enzyme (1/2000 final dilution from aliquots; sufficient to produce 20% substrate conversion) was added to the assay plate. Next 10 uL of a separate solution of the substrate FAM-labeled cAMP (50 nM final concentration product # R7506 from Molecular Devices) and the activator cGMP (1 uM final concentration), prepared in the assay buffer (10 mM Tris HCl, pH 7.2, 10 mM MgCl2, 0.05% NaN3 0.01% Tween-20, and 1 mM DTT) was added to the assay plate and shaken to mix. The reaction is allowed to proceed at room temperature for 60 minutes. A binding solution is then made from the kit components, comprised of 80% Solution A, 20% Solution B and binding reagent at a volume of 1/600 the total binding solution. The enzymatic reaction is stopped by addition of 60 μL of the binding solution to each well of the assay plates and the plates are sealed and shaken for 30 seconds. The plate was incubated at room temperature for at least one hour prior to determining the fluorescence polarization (FP). The parallel and perpendicular fluorescence of each well of the plate was measured using a Tecan Genios Pro plate reader (Tecan, Switzerland) or Perkin Elmer EnVision™ plate reader (Waltham, Mass.). Fluorescence polarization (mP) was calculated from the parallel (S) and perpendicular (P) fluorescence of each sample well and the analogous values for the median control well, containing only substrate (So and Po), using the following equation: Polarization (mP)=1000*(S/So−P/Po)/(S/So+P/Po).

The mark [1] stands for this setting: LabB, read-out: hPDE2 Ki (nM) LabB.
The mark [2] stands for this setting: LabA, read-out: rhPDE2 Ki (nM) LabA.
The mark [3] stands for this setting: LabB, read-out: rhPDE2 Ki (nM) LabB.
Setting [4] is: LabA, read-out: hPDE2 Ki (nM) LabA.

Sequence of human PDE2A1 (O00408 other isoform, or with tags, fused parts or gaps): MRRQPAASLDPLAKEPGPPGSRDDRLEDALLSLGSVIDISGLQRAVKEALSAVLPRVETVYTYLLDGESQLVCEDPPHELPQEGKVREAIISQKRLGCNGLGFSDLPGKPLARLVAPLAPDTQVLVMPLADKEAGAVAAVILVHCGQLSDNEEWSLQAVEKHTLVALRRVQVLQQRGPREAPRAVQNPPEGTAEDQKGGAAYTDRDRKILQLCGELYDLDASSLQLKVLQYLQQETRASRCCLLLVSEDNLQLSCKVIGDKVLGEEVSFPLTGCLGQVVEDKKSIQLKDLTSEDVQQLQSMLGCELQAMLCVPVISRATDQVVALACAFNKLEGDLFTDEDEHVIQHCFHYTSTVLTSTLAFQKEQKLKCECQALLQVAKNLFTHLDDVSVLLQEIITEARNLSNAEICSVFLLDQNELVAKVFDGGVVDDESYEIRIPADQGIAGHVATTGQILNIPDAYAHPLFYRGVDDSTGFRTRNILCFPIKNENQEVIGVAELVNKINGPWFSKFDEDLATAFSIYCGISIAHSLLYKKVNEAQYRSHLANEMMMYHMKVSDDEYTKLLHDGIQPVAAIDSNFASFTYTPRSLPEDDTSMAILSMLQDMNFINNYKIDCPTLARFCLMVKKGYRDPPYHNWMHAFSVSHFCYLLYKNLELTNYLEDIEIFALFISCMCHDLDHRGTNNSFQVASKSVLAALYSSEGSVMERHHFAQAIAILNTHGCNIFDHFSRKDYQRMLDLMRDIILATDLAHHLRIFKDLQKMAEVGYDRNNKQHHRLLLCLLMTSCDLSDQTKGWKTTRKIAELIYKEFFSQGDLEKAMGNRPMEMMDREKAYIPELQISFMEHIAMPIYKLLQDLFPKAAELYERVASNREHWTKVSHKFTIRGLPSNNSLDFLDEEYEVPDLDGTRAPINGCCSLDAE
Sequence of Rhesus PDE2A3 (B3VTJ2 1-941): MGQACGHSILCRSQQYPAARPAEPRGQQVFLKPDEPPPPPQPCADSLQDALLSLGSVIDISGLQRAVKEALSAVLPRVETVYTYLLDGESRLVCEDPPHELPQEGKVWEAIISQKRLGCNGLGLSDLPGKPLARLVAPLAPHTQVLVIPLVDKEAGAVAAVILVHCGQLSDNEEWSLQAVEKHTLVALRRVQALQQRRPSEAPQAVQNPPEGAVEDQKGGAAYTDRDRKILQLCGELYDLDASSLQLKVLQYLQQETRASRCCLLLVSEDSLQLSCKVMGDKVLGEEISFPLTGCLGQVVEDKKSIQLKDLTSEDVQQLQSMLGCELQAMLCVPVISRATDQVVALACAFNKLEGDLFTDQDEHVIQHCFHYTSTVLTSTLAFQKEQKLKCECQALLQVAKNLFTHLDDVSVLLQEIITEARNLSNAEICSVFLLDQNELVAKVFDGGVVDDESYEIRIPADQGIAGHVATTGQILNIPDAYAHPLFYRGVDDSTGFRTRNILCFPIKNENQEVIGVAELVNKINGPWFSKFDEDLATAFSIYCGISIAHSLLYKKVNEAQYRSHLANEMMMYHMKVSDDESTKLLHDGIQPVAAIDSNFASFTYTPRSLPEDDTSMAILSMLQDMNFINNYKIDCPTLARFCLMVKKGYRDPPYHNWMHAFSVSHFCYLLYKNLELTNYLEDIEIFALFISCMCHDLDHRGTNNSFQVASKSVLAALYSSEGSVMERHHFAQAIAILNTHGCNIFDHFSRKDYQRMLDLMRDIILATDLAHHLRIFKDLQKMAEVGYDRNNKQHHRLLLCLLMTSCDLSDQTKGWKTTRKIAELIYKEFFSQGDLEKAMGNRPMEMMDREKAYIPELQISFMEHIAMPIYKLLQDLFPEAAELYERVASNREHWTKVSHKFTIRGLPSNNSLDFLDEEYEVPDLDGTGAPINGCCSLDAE

Regarding `COc1ccc(Cc2nc(-c3cn(C(C)c4ccc(C(F)(F)F)cc4F)cn3)cc(=O)[nH]2)cc1OC` (single isomer, unassigned) [Example 19, (R)- or (S)-2-(3,4-dimethoxy-benzyl)-6-(1-(1-(2-fluoro-4-(trifluoromethyl)phenyl)ethyl)-1H-imidazol-4-yl)pyrimidin-4(3H)-one], the figures for the inhibition constant (Ki) at human PDE2A1 (setting [1]), on Rhesus PDE2A3 (setting [2]) and on Rhesus PDE2A3 (setting [3]) were 0.4 nM, 0.2 nM and 0.4 nM, respectively.

Consider `Cc1nc(-c2nnc([C@H](C)c3ccc(C(F)(F)F)cc3)s2)cc(=O)[nH]1` (single isomer, unassigned) [Example 6], for which the Ki at human PDE2A1 (setting [4]) turned out to be 6 nM; on human PDE2A1 (setting [1]), 12 nM; at Rhesus PDE2A3 (setting [2]), 10 nM; on Rhesus PDE2A3 (setting [3]), 13 nM.

Consider `Cc1nc(-c2cn(C(C)c3ccc(C(F)(F)F)cc3)cn2)cc(=O)[nH]1` (single isomer, unassigned) [Example 17, (R)- or (S)-2-methyl-6-(1-(1-(4-(trifluoro-methyl)phenyl)ethyl)-1H-imidazol-4-yl) pyrimidin-4 (3H)-one], for which the inhibition constant (Ki) on human PDE2A1 (setting [4]) turned out to be 76 nM; on Rhesus PDE2A3 (setting [2]) it was 106 nM.

`Cc1nc(-c2nnc([C@H](C)c3ccc(C(F)(F)F)cc3)o2)cc(=O)[nH]1` (single isomer, unassigned) [Example 9]: the Ki on human PDE2A1 (setting [4]) stood at 79 nM; on Rhesus PDE2A3 (setting [2]) it was 86 nM; on Rhesus PDE2A3 (setting [3]), 159 nM.

Turning to `Cc1nc(-c2nnc([C@H](C)c3ccc(C(F)(F)F)cc3)s2)cc(=O)[nH]1` (single isomer, unassigned) [Example 7], the Ki at human PDE2A1 (setting [4]) came out at 13 nM; at human PDE2A1 (setting [1]), 62 nM; on Rhesus PDE2A3 (setting [2]) it was 21 nM; at Rhesus PDE2A3 (setting [3]), 57 nM.

In the case of `Cc1nc(-c2cc(=O)[nH]c(C)n2)cc(C(C)c2ccc(C(F)(F)F)cc2)n1` (stereo not drawn) [Example 48, 2,2′-dimethyl-6′-(1-(4-(trifluoromethyl)phenyl)ethyl)-[4,4′-bipyrimidin]-6(1H)-one], the inhibition constant Ki on human PDE2A1 (setting [4]) came to 312 nM; on Rhesus PDE2A3 (setting [2]), 516 nM.

With `Cc1nc(-c2ncc(C(C)c3ccc(C(F)(F)F)cc3)s2)cc(=O)[nH]1` (stereo not drawn) [Example 1, 2-Methyl-6-(5-(1-(4-(trifluoromethyl)phenyl)ethyl)thiazol-2-yl)pyrimidin-4(3H)-one], the values for the inhibition constant (Ki) at human PDE2A1 (setting [4]), at Rhesus PDE2A3 (setting [2]) and at Rhesus PDE2A3 (setting [3]) were 60 nM, 96 nM and 481 nM, respectively.

As to `Cc1nc(-c2ncc(C(C)c3ccc(C(F)(F)F)cc3)o2)cc(=O)[nH]1` (stereo not drawn) [Example 8, 2-Methyl-6-(5-(1-(4-(trifluoromethyl)phenyl)ethyl)oxazol-2-yl)pyrimidin-4(3H)-one], the values for the Ki at human PDE2A1 (setting [4]) and on Rhesus PDE2A3 (setting [2]) were 403 nM and 352 nM, respectively.

Turning to `COc1ccc(Cc2nc(-c3cn(C(C)c4ccc(C(F)(F)F)cc4F)cn3)cc(=O)[nH]2)cc1OC` (single isomer, unassigned) [Example 18, (R)- or (S)-2-(3,4-dimethoxy-benzyl)-6-(1-(1-(2-fluoro-4-(trifluoromethyl)phenyl)ethyl)-1H-imidazol-4-yl)pyrimidin-4(3H)-one], the inhibition constant (Ki) at human PDE2A1 (setting [4]) is 1.4 nM; on Rhesus PDE2A3 (setting [2]) it was 2.3 nM.

Consider `Cc1nc(-c2nnc([C@H](C)c3ccc(C(F)(F)F)cc3F)s2)cc(=O)[nH]1` (single isomer, unassigned) [Example 4], for which the figures for the Ki at human PDE2A1 (setting [1]) and at Rhesus PDE2A3 (setting [3]) were 22 nM and 20 nM, respectively.
